This assay relates to RMA-Rael cells. In words: RMA-Rael viability following in vitro treatment. Format: cell-based, mice. Conditions: 24 h, doses given as 5-20 pM, vs solvent only. From the text: FIGS. 5A-5I show the effects of SHIP1 inhibitor as a chemotherapeutic. […] FIG. 5D and FIG. 5E show the representative histograms and box-and-whisker plots of FasL expression by NK cells from C56BL/6 (p=0.0002; Unpaired t test with Welch's correction) or RAG1−/− (p<0.0001; Mann-Whitney U test) tumor challenged, SHIP inhibitor or vehicle treated hosts. […] (NK cells p=0.0192; Unpaired t test with Welch's correction. T cells p=0.0659; Mann-Whitney U test). Additionally, FIGS. 5A-5G show the analysis by flow cytometry on day 3 after hosts receive SHIP inhibitor or vehicle for two consecutive days. NK cells are defined as NK1.1+CD3ε−. The graphs are representative of at least two independent experiments with at least four SHIP inhibitor and vehicle treated mice. […] Viability is expressed as frequency at a given concentration expressed as a percentage of solvent only treated cells. The kill curve summarizes pooled data from three independent experiments using six replicate wells/concentration with mean ±SEM indicated (n=18 per group. One-way ANOVA with Dunnett's multiple comparisons. 0 pM vs. 20 pM Adjusted p value =0.0001. 0 pM vs. 15 pM Adjusted p value =0.0001. 0 pM vs. 10 pM Adjusted p value =0.0001. 0 pM vs. 7.5 pM Adjusted p value =0.0001. 0 pM vs. 5 pM Adjusted p value =0.0001). […]

The values that follow come from patent US11952328B2, “Selective ship inhibitors for treating disease” (THE RESEARCH FOUNDATION FOR THE STATE UNIVERSITY OF NEW YORK, priority 2018, dated 2024).

Entries after “also recorded” stand apart in the source; their conditions may differ.

Take `CC(C)CCC[C@@H](C)[C@H]1CC[C@H]2[C@@H]3CCC4C[C@H](N)CC[C@]4(C)[C@H]3CC[C@]12C` (stereo partly drawn) [Compound 3AC, 3-α-aminocholestane]: the “RMA-Rael viability (direct killing)” value was “capable of directly killing RMA-Rael cells; also recorded: cytotoxic”.
